The results in this text go back to ChEMBL document CHEMBL5365416, “Identification of Ecdysteroid Sinapate Esters with COX-2 Inhibitory Effects from Fibraurea recisa Using Molecular Networking and MS2LDA” (2023).

In assay [1] the test system is RAW264.7. As to the kind of experiment: Inhibition of LPS-induced COX2 protein expression in mouse RAW264.7 cells at 0.1 to 30 uM incubated for 24 hrs by Western blot analysis. The format is functional, cell-based. The note with it: dose 0.1-30 µM. (A western blot detects proteins with antibodies after separation by electrophoresis.)
Assay [2] deals with RAW264.7. The assay is described as follows: Inhibition of LPS-induced NO production in mouse RAW264.7 cells at 30 uM relative to control. The class given is functional.
Assay [3] relates to RAW264.7. As to the kind of experiment: Inhibition of LPS-induced COX2 protein expression in mouse RAW264.7 cells at 1 to 30 uM incubated for 24 hrs by Western blot analysis. The format is functional, cell-based. The note with it: dose 1-30 µM.
Assay [4] has as its system RAW264.7. The assay is described as follows: Inhibition of LPS-induced iNOS protein expression in mouse RAW264.7 cells at 30 uM incubated for 24 hrs by Western blot analysis. The class given is functional, cell-based.

The inhibition is the relative decrease from the control value, in per cent.

Calls of active or inactive are those of the source. The calls are words filed in the database; no cut-off is given here.

As for `COC(=O)/C=C/c1cc(OC)c(O)c(OC)c1`, the inhibition result in the assay on RAW264.7 [1] is “inactive”.
On the same count and under the same terms, as for `C[C@H](C[C@@H](O)[C@](C)(O)[C@H]1CC[C@@]2(O)C3=CC(=O)[C@@H]4C[C@@H](O)[C@@H](O)C[C@]4(C)[C@H]3CC[C@]12C)C(C)(C)O`, the entry is “inactive”.
In the assay with RAW264.7 [2], `COc1cc(/C=C/C(=O)O[C@H]2C[C@@]3(C)[C@@H](C[C@H]2O)C(=O)C=C2[C@@H]3CC[C@]3(C)[C@@H]([C@@](C)(O)[C@H](O)C[C@@H](C)C(C)(C)O)CC[C@@]23O)cc(OC)c1O` had an inhibition at 30 µM of 12.7%. The inhibition entry in the assay with RAW264.7 [3] was “Active”. Moreover, the inhibition result in the assay on RAW264.7 [4] was “inactive”.
The corresponding values for `COc1cc(/C=C/C(=O)O[C@@H]2C[C@H]3C(=O)C=C4[C@H](CC[C@]5(C)[C@@H]([C@@](C)(O)[C@H](O)C[C@@H](C)C(C)(C)O)CC[C@@]45O)[C@@]3(C)C[C@@H]2O)cc(OC)c1O` are 14.7%, “inactive” and “inactive”.
